The source made the active and inactive calls.

Series [1] concerns Mus musculus. Description: Anticonvulsant activity in mouse assessed as protection against subcutaneous pentylenetetrazol-induced seizure at 400 mg/kg. Format: functional, organism-based.
Series [2] is described as follows: Metabolic stability in rat liver microsome assessed as recovery of parent compound after 30 mins in presence NADPH. Format: ADME. Conditions: liver microsomes, read-out: Drug recovery. (Microsomes from liver hold many membrane-bound enzymes, among them those of drug oxidation.)
A short description of series [3]: Permeability of compound at pH 5.0 by PAMPA assay. Format: physicochemical. The note with it: read-out: permeability. (In general: In PAMPA a lipid-coated filter parts donor from acceptor wells.)
Series [4] deals with Mus musculus. Description: Anticonvulsant activity in mouse assessed as protection against maximal electroshock-induced seizure at 400 mg/kg. Format: functional, organism-based.
Series [5] can be described thus: Permeability of compound at pH 7.4 by PAMPA assay. Format: physicochemical. Conditions: read-out: permeability.
The test system of series [6] is Mus musculus. The experiment in a line: Anticonvulsant activity in mouse assessed as protection against maximal electroshock-induced seizure at 100 mg/kg. Format: functional, organism-based. On the technique in general: The maximal electroshock test induces tonic seizures with an electrical stimulus.
The subject of series [7] is Mus musculus. Description: Anticonvulsant activity in ip-dosed mouse assessed as protection against subcutaneous pentylenetetrazol-induced seizure. Format: functional. The note with it: sc.
The species named for series [8] is Mus musculus. The experiment in a line: Anticonvulsant activity in mouse assessed as protection against maximal electroshock-induced seizure. Format: functional.
In series [9] the test system is Rattus norvegicus. The experiment in a line: Anticonvulsant activity in rat amygdala kindling model assessed as change in after-discharge duration at 100 mg/kg, po. Format: functional.
The test system of series [10] is Mus musculus. The experiment in a line: Anticonvulsant activity in mouse assessed as protection against maximal electroshock-induced seizure at 25 mg/kg. Format: functional, organism-based.
The test system of series [11] is Rattus norvegicus. The experiment in a line: Anticonvulsant activity in rat amygdala kindling model assessed as change in after-discharge duration at 30 mg/kg, po. Format: functional.
Series [12] deals with Mus musculus. The experiment in a line: Anticonvulsant activity in mouse assessed as protection against maximal electroshock-induced seizure at 50 mg/kg. Format: functional, organism-based.
In series [13] the test system is Rattus norvegicus. Description: Anticonvulsant activity in rat amygdala kindling model assessed as decrease in rearing and bilateral forelimb clonus seizure 100 mg/kg, po. Format: functional, organism-based.
The subject of series [14] is Mus musculus. Description: Anticonvulsant activity in mouse assessed as protection against subcutaneous pentylenetetrazol-induced seizure at 100 mg/kg. Format: functional, organism-based.
Series [15] has as its system Rattus norvegicus. The experiment in a line: Anticonvulsant activity in rat amygdala kindling model assessed as change in after-discharge threshold at 30 mg/kg, po. Format: functional.
In series [16] the test system is Rattus norvegicus. The experiment in a line: Anticonvulsant activity in rat amygdala kindling model assessed as change in after-discharge threshold at 100 mg/kg, po. Format: functional.

Turning to `CCNC(=O)C1=Cc2ccccc2S(=O)(=O)N1C`, the result in the series with Mus musculus [1] and in the series with Mus musculus [4] was Active. In addition, in series [2], the remaining at 0.5 h is over 90%. For the same compound, the Papp in series [3] and in series [5] was 5.9 ×10⁻⁶ cm/s each time.
As for `O=C(NC1CC1)C1=C(Cl)c2ccccc2S(=O)(=O)N1Cc1ccccc1`, the outcome in the series on Mus musculus [4] was inactive.
Turning to `CN1C(C(=O)NC2CC2)=C(Cl)c2ccccc2S1(=O)=O`, the remaining at 0.5 h in series [2] was over 90%. For the same compound, the Papp in series [3] and in series [5] was 12 ×10⁻⁶ cm/s each time. The outcome in the series with Mus musculus [4] was Active.
Take `CC(=O)NCCNC(=O)C1=Cc2ccccc2S(=O)(=O)N1C`: in the series on Mus musculus [4], the result was inactive.
As to `CN1C(C(=O)NCC(F)F)=Cc2ccccc2S1(=O)=O`, the outcome in the series with Mus musculus [4] was Active.
In the case of `CCN1C(C(=O)NC2CC2)=C(Cl)c2ccccc2S1(=O)=O`, in the series on Mus musculus [4], the outcome was Active.
Take `CN1C(C(=O)NC2CC2)=Cc2ccccc2S1(=O)=O`: the result with Mus musculus [1], in the series with Mus musculus [6] and with Mus musculus [4] was Active. Besides, the remaining at 0.5 h in [2] is over 90%. Also, the Papp in [3] and in series [5] was 5.9 ×10⁻⁶ cm/s in each case.
Turning to `CN(C)C(=O)C1=Cc2ccccc2S(=O)(=O)N1C`, the result in the series with Mus musculus [4] was Active.
`NC(=O)N1c2ccccc2C=Cc2ccccc21` [CARBAMAZEPINE]: the ED50 in the series with Mus musculus [7] is over 100 mg/kg; in the series listed under Mus musculus [8], 13 mg/kg.
In the case of `CCNC(=O)C1=C(Cl)c2ccccc2S(=O)(=O)N1C`, the Activity in the series with Rattus norvegicus [9] is given as -18.2%; in the series on Rattus norvegicus [11] it was -20%; in the series on Rattus norvegicus [15] it was 10%; in the series with Rattus norvegicus [16], 40.5%. For the same compound, the outcome in the series with Mus musculus [6], with Mus musculus [12], in the series on Rattus norvegicus [13] and in the series with Mus musculus [14] was Active. Further, the outcome in the series on Mus musculus [10] was inactive.
Take `NS(=O)(=O)Cc1noc2ccccc12` [ZONISAMIDE]: the Activity is given as -37.6% in the series on Rattus norvegicus [9], 7% in the series on Rattus norvegicus [11], 5.1% in the series with Rattus norvegicus [15] and 45.9% in the series with Rattus norvegicus [16]. Also, the ED50 with Mus musculus [7] is over 500 mg/kg; in the series listed under Mus musculus [8], 20 mg/kg.
As to `CCC1=C(C(=O)NC2CC2)N(C)S(=O)(=O)c2ccccc21`, in the series with Mus musculus [4], the outcome was Active.
`CC1=C(C(=O)NC2CC2)N(C)S(=O)(=O)c2ccccc21`: in the series on Mus musculus [6], the result was inactive. The remaining at 0.5 h in [2] was over 90%. Moreover, the Papp in series [3] and in series [5] was 12 ×10⁻⁶ cm/s in each case. Also, the result in the series with Mus musculus [4] was Active.
`O=C1NC(=O)C(c2ccccc2)(c2ccccc2)N1` [PHENYTOIN]: the ED50 with Mus musculus [7] was over 300 mg/kg; in the series filed under Mus musculus [8] it was 8 mg/kg.
Turning to `CN1C(C(=O)NC2CC2)=C(C2CC2)c2ccccc2S1(=O)=O`, in series [2], the remaining at 0.5 h was over 90%. The Papp in [3] and in series [5] was 12 ×10⁻⁶ cm/s in each case. In addition, the outcome in the series on Mus musculus [4] was Active.
As to `CC(C)NC(=O)C1=Cc2ccccc2S(=O)(=O)N1C`, the result in the series with Mus musculus [6] and with Mus musculus [14] was inactive. Further, the outcome with Mus musculus [4] was Active.
For `CCCNC(=O)C1=Cc2ccccc2S(=O)(=O)N1C`, the result in the series with Mus musculus [1] and in the series on Mus musculus [4] was Active. Further, in series [2], the remaining at 0.5 h was over 90%. Further, the result in the series on Mus musculus [12] was inactive. The Papp in series [3] and in series [5] was 5.9 ×10⁻⁶ cm/s throughout.
Consider `CN1C(C(=O)NC2CC2)=C(c2ccccc2)c2ccccc2S1(=O)=O`, for which, in the series with Mus musculus [1], the outcome was inactive.
On to `CNC(=O)C1=Cc2ccccc2S(=O)(=O)N1C`, for which the remaining at 0.5 h in [2] is over 90%. For the same compound, the Papp in [3] and in [5] was 5.9 ×10⁻⁶ cm/s each time. Besides, in the series on Mus musculus [4], the outcome was Active.

In general, ED50 refers to the dose at which the effect has come halfway, by size or by number of responders.
